According to paper PMC8037182, “Solvothermal Synthesis of Multiple Dihydropyrimidinones at a Time as Inhibitors of Eg5” (Molecules, 2021):

Assays:
Hela cell line = experiment: Cytotoxicity MTS assay, Hela cell line; type: cell-based; conditions: for OD490 value, Mean / OD490 value, Well 1 / OD490 value, Well 2 / OD490 value, Well 3: Hela cell line, MTS;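 as to OD490 value, Mean: blank control wells received 0.025% DMSO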;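 as to OD490 value, Well 1: blank control wells received 0.025% DMSO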;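 as to OD490 value, Well 2: blank control wells received 0.025% DMSO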;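 as to OD490 value, Well 3: blank control wells received 0.025% DMSO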
How it was run: (§1)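 Steps: plate 1000 cells per well; incubate 24 h; add compound (final 0.5 to 100 µM) or 0.025% DMSO blank for 24 h; add MTS reagent, hold 2 h at 37 °C in 5% CO2; read A490; fit percent viability against concentration by non-linear regression to obtain IC50.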

L929 cell line = experiment: Cytotoxicity MTS assay, L929 cell line; type: cell-based; conditions: for OD490 values, Mean / OD490 values, Well 1 / OD490 values, Well 2 / OD490 values, Well 3: L929 cell line
How it was run: as §1

CCOC(=O)c1[nH]c(C2NC(=O)NC(C)=C2C(=O)Nc2ccc(Cl)cc2)c(C(=O)OCC)c1C (centres unmarked) [D7]
OD490 value, Mean (Hela cell line; 0.5μM, first assay): 2.5908 | OD490 value, Well 1 (Hela cell line; 0.5μM, first assay): 2.5621 | OD490 value, Well 2 (Hela cell line; 0.5μM, first assay): 2.6393 | OD490 value, Well 3 (Hela cell line; 0.5μM, first assay): 2.5711 | OD490 value, Mean (Hela cell line; 0.5μM, second assay): 2.6768 | OD490 value, Well 1 (Hela cell line; 0.5μM, second assay): 2.5588 | OD490 value, Well 2 (Hela cell line; 0.5μM, second assay): 2.6974 | OD490 value, Well 3 (Hela cell line; 0.5μM, second assay): 2.7741 | OD490 value, Mean (Hela cell line; 0.5μM, third assay): 2.6551 | OD490 value, Well 1 (Hela cell line; 0.5μM, third assay): 2.6545 | OD490 value, Well 2 (Hela cell line; 0.5μM, third assay): 2.6358 | OD490 value, Well 3 (Hela cell line; 0.5μM, third assay): 2.6749 | OD490 value, Mean (Hela cell line; 1μM, first assay): 2.4582 | OD490 value, Well 1 (Hela cell line; 1μM, first assay): 2.4152 | OD490 value, Well 2 (Hela cell line; 1μM, first assay): 2.4632 | OD490 value, Well 3 (Hela cell line; 1μM, first assay): 2.4962 | OD490 value, Mean (Hela cell line; 1μM, second assay): 2.6058 | OD490 value, Well 1 (Hela cell line; 1μM, second assay): 2.8624 | OD490 value, Well 2 (Hela cell line; 1μM, second assay): 2.6541 | OD490 value, Well 3 (Hela cell line; 1μM, second assay): 2.3010 | OD490 value, Mean (Hela cell line; 1μM, third assay): 2.6692 | OD490 value, Well 1 (Hela cell line; 1μM, third assay): 2.6686 | OD490 value, Well 2 (Hela cell line; 1μM, third assay): 2.5980 | OD490 value, Well 3 (Hela cell line; 1μM, third assay): 2.7410 | OD490 value, Mean (Hela cell line; 10μM, first assay): 2.5790 | OD490 value, Well 1 (Hela cell line; 10μM, first assay): 2.7201 | OD490 value, Well 2 (Hela cell line; 10μM, first assay): 2.4926 | OD490 value, Well 3 (Hela cell line; 10μM, first assay): 2.5244 | OD490 value, Mean (Hela cell line; 10μM, second assay): 2.5914 | OD490 value, Well 1 (Hela cell line; 10μM, second assay): 2.3698 | OD490 value, Well 2 (Hela cell line; 10μM, second assay): 2.8523 | OD490 value, Well 3 (Hela cell line; 10μM, second assay): 2.5521 | OD490 value, Mean (Hela cell line; 10μM, third assay): 2.6067 | OD490 value, Well 1 (Hela cell line; 10μM, third assay): 2.5657 | OD490 value, Well 2 (Hela cell line; 10μM, third assay): 2.6845 | OD490 value, Well 3 (Hela cell line; 10μM, third assay): 2.5698 | OD490 value, Mean (Hela cell line; 25μM, first assay): 2.6458 | OD490 value, Well 1 (Hela cell line; 25μM, first assay): 2.7056 | OD490 value, Well 2 (Hela cell line; 25μM, first assay): 2.6228 | OD490 value, Well 3 (Hela cell line; 25μM, first assay): 2.6091 | OD490 value, Mean (Hela cell line; 25μM, second assay): 2.6325 | OD490 value, Well 1 (Hela cell line; 25μM, second assay): 2.5901 | OD490 value, Well 2 (Hela cell line; 25μM, second assay): 2.6301 | OD490 value, Well 3 (Hela cell line; 25μM, second assay): 2.6774 | OD490 value, Mean (Hela cell line; 25μM, third assay): 2.6849 | OD490 value, Well 1 (Hela cell line; 25μM, third assay): 2.6987 | OD490 value, Well 2 (Hela cell line; 25μM, third assay): 2.6457 | OD490 value, Well 3 (Hela cell line; 25μM, third assay): 2.7102 | OD490 value, Mean (Hela cell line; 50μM, first assay): 2.4563 | OD490 value, Well 1 (Hela cell line; 50μM, first assay): 2.5239 | OD490 value, Well 2 (Hela cell line; 50μM, first assay): 2.4847 | OD490 value, Well 3 (Hela cell line; 50μM, first assay): 2.3602 | OD490 value, Mean (Hela cell line; 50μM, second assay): 2.2166 | OD490 value, Well 1 (Hela cell line; 50μM, second assay): 2.3365 | OD490 value, Well 2 (Hela cell line; 50μM, second assay): 2.0124 | OD490 value, Well 3 (Hela cell line; 50μM, second assay): 2.3010 | OD490 value, Mean (Hela cell line; 50μM, third assay): 2.4441 | OD490 value, Well 1 (Hela cell line; 50μM, third assay): 2.4565 | OD490 value, Well 2 (Hela cell line; 50μM, third assay): 2.6544 | OD490 value, Well 3 (Hela cell line; 50μM, third assay): 2.2214 | OD490 value, Mean (Hela cell line; 100μM, first assay): 1.9660 | OD490 value, Well 1 (Hela cell line; 100μM, first assay): 1.8876 | OD490 value, Well 2 (Hela cell line; 100μM, first assay): 1.9083 | OD490 value, Well 3 (Hela cell line; 100μM, first assay): 2.1021 | OD490 value, Mean (Hela cell line; 100μM, second assay): 1.8447 | OD490 value, Well 1 (Hela cell line; 100μM, second assay): 1.6754 | OD490 value, Well 2 (Hela cell line; 100μM, second assay): 1.8601 | OD490 value, Well 3 (Hela cell line; 100μM, second assay): 1.9987 | OD490 value, Mean (Hela cell line; 100μM, third assay): 1.9092 | OD490 value, Well 1 (Hela cell line; 100μM, third assay): 1.9698 | OD490 value, Well 2 (Hela cell line; 100μM, third assay): 1.9033 | OD490 value, Well 3 (Hela cell line; 100μM, third assay): 1.8546 | IC50 (Hela cell line; MTS assay, 24 h exposure): > 150 µM | OD490 values, Mean (L929 cell line; 0.5μM, first assay): 1.2964 | OD490 values, Well 1 (L929 cell line; 0.5μM, first assay): 1.2432 | OD490 values, Well 2 (L929 cell line; 0.5μM, first assay): 1.3324 | OD490 values, Well 3 (L929 cell line; 0.5μM, first assay): 1.3135 | OD490 values, Mean (L929 cell line; 0.5μM, second assay): 1.6723 | OD490 values, Well 1 (L929 cell line; 0.5μM, second assay): 1.6985 | OD490 values, Well 2 (L929 cell line; 0.5μM, second assay): 1.7484 | OD490 values, Well 3 (L929 cell line; 0.5μM, second assay): 1.5699 | OD490 values, Mean (L929 cell line; 0.5μM, third assay): 1.6351 | OD490 values, Well 1 (L929 cell line; 0.5μM, third assay): 1.6545 | OD490 values, Well 2 (L929 cell line; 0.5μM, third assay): 1.5521 | OD490 values, Well 3 (L929 cell line; 0.5μM, third assay): 1.6987 | OD490 values, Mean (L929 cell line; 1μM, first assay): 1.2921 | OD490 values, Well 1 (L929 cell line; 1μM, first assay): 1.3838 | OD490 values, Well 2 (L929 cell line; 1μM, first assay): 1.2582 | OD490 values, Well 3 (L929 cell line; 1μM, first assay): 1.2343 | OD490 values, Mean (L929 cell line; 1μM, second assay): 1.6805 | OD490 values, Well 1 (L929 cell line; 1μM, second assay): 1.6879 | OD490 values, Well 2 (L929 cell line; 1μM, second assay): 1.6582 | OD490 values, Well 3 (L929 cell line; 1μM, second assay): 1.6955 | OD490 values, Mean (L929 cell line; 1μM, third assay): 1.6677 | OD490 values, Well 1 (L929 cell line; 1μM, third assay): 1.6254 | OD490 values, Well 2 (L929 cell line; 1μM, third assay): 1.6358 | OD490 values, Well 3 (L929 cell line; 1μM, third assay): 1.7420 | OD490 values, Mean (L929 cell line; 10μM, first assay): 1.2890 | OD490 values, Well 1 (L929 cell line; 10μM, first assay): 1.2982 | OD490 values, Well 2 (L929 cell line; 10μM, first assay): 1.3257 | OD490 values, Well 3 (L929 cell line; 10μM, first assay): 1.2432 | OD490 values, Mean (L929 cell line; 10μM, second assay): 1.6485 | OD490 values, Well 1 (L929 cell line; 10μM, second assay): 1.6354 | OD490 values, Well 2 (L929 cell line; 10μM, second assay): 1.6254 | OD490 values, Well 3 (L929 cell line; 10μM, second assay): 1.6847 | OD490 values, Mean (L929 cell line; 10μM, third assay): 1.7036 | OD490 values, Well 1 (L929 cell line; 10μM, third assay): 1.5935 | OD490 values, Well 2 (L929 cell line; 10μM, third assay): 1.8852 | OD490 values, Well 3 (L929 cell line; 10μM, third assay): 1.6320 | OD490 values, Mean (L929 cell line; 25μM, first assay): 1.2098 | OD490 values, Well 1 (L929 cell line; 25μM, first assay): 1.2509 | OD490 values, Well 2 (L929 cell line; 25μM, first assay): 1.2839 | OD490 values, Well 3 (L929 cell line; 25μM, first assay): 1.0945 | OD490 values, Mean (L929 cell line; 25μM, second assay): 1.5137 | OD490 values, Well 1 (L929 cell line; 25μM, second assay): 1.4655 | OD490 values, Well 2 (L929 cell line; 25μM, second assay): 1.5869 | OD490 values, Well 3 (L929 cell line; 25μM, second assay): 1.4888 | OD490 values, Mean (L929 cell line; 25μM, third assay): 1.4100 | OD490 values, Well 1 (L929 cell line; 25μM, third assay): 1.4658 | OD490 values, Well 2 (L929 cell line; 25μM, third assay): 1.4441 | OD490 values, Well 3 (L929 cell line; 25μM, third assay): 1.3201 | OD490 values, Mean (L929 cell line; 50μM, first assay): 1.1393 | OD490 values, Well 1 (L929 cell line; 50μM, first assay): 1.0255 | OD490 values, Well 2 (L929 cell line; 50μM, first assay): 1.3097 | OD490 values, Well 3 (L929 cell line; 50μM, first assay): 1.0826 | OD490 values, Mean (L929 cell line; 50μM, second assay): 1.3764 | OD490 values, Well 1 (L929 cell line; 50μM, second assay): 1.3685 | OD490 values, Well 2 (L929 cell line; 50μM, second assay): 1.3652 | OD490 values, Well 3 (L929 cell line; 50μM, second assay): 1.3955 | OD490 values, Mean (L929 cell line; 50μM, third assay): 1.3402 | OD490 values, Well 1 (L929 cell line; 50μM, third assay): 1.3584 | OD490 values, Well 2 (L929 cell line; 50μM, third assay): 1.2635 | OD490 values, Well 3 (L929 cell line; 50μM, third assay): 1.3987 | OD490 values, Mean (L929 cell line; 100μM, first assay): 0.7147 | OD490 values, Well 1 (L929 cell line; 100μM, first assay): 0.7427 | OD490 values, Well 2 (L929 cell line; 100μM, first assay): 0.7798 | OD490 values, Well 3 (L929 cell line; 100μM, first assay): 0.6215 | OD490 values, Mean (L929 cell line; 100μM, second assay): 0.8285 | OD490 values, Well 1 (L929 cell line; 100μM, second assay): 0.8306 | OD490 values, Well 2 (L929 cell line; 100μM, second assay): 0.7562 | OD490 values, Well 3 (L929 cell line; 100μM, second assay): 0.8988 | OD490 values, Mean (L929 cell line; 100μM, third assay): 0.8420 | OD490 values, Well 1 (L929 cell line; 100μM, third assay): 0.8635 | OD490 values, Well 2 (L929 cell line; 100μM, third assay): 0.8992 | OD490 values, Well 3 (L929 cell line; 100μM, third assay): 0.7632 | IC50 (L929 cell line; MTS assay, 24 h exposure, ordinary fibroblast, not cancer cells): 94.7 µM
